# Source: patent US11578130B2, “Regulatable chimeric antigen receptor” (Novartis AG, priority 2013, dated 2023)
# Where two headings read alike, the source gives them in different places.
# What was measured:
# H3N2 A/Victoria/210/2009 = assay: Clinical trial: hemagglutination inhibition titers and seroconversion, vaccine strain A/H3N2; type: in vivo, human
# Procedure: (§1) The trial was observer-blind because the placebo in the RAD001 0.5 mg daily and 20 mg weekly cohorts differed slightly from the RAD001 tablets in those cohorts. […] The treatment duration for all cohorts was 6 weeks during which time subjects underwent safety evaluations in the clinic every 2 weeks. After subjects had been dosed for 4 weeks, RAD001 steady state levels were measured pre-dose and at one hour post dose. After completing the 6 week course of study drug, subjects were given a 2 week drug free break to reverse any possible RAD001-induced immunosuppression, and then were given a 2012 seasonal influenza vaccination (Agrippal®, Novartis Vaccines and Diagnostics, Siena, Italy) containing the strains H1N1 A/California/07/2009, H3N2 A/Victoria/210/2009, B/Brisbane/60/2008. Four weeks after influenza vaccination, subjects had serum collected for influenza titer measurements. Antibody titers to the 3 influenza vaccine strains as well as to 2 heterologous strains (A/H1N1 strain A/New Jersey/8/76 and A/H3N2 strain A/Victoria/361/11) were measured by standard hemagglutination inhibition assay (Kendal, A P et al. (1982) Concepts and procedures for laboratory-based influenza surveillance. Atlanta: Centers for Disease Control and Prevention B17-B35).
# (§2) The ability of RAD001 to improve immune function in elderly volunteers was evaluated by measuring the serologic response to the 2012 seasonal influenza vaccine. The hemagglutination inhibition (HI) geometric mean titers (GMT) to each of the 3 influenza vaccine strains at baseline and 4 weeks after influenza vaccination are provided in Table 22. The primary analysis variable was the HI GMT ratio (4 weeks post vaccination/baseline). […] This endpoint was chosen because a 1.2-fold increase in the influenza GMT ratio induced by the MF-59 vaccine adjuvant was associated with a decrease in influenza illness (Iob, A et al. (2005) Epidemiol Infect 133:687-693).
# (§3) Rates of seroconversion 4 weeks after influenza vaccination were also evaluated. Seroconversion was defined as the change from a negative pre-vaccination titer (i.e., HI titer <1:10) to post-vaccination HI titer ≥1:40 or at least 4-fold increase from a non-negative (≥1:10) pre-vaccination HI titer.
# [1] = Clinical trial: energy and exercise questionnaires one year after dosing; type: in vivo, human; conditions: 0.5 mg daily dosing cohort
# [2] = system: A/H1N1 strain A/New Jersey/8/76; type: in vivo, human
# [3] = system: influenza vaccine strains; assay: Clinical trial: serologic response to 2012 seasonal influenza vaccine, primary endpoint across the 3 vaccine strains (HI GMT ratio); type: in vivo, human; conditions: for primary endpoint of the study (HI GMT ratio versus placebo): ITT population
# [4] = system: Jurkat cells with NFAT-LUC reporter (JNL); assay: Activation of RCAR half switches (intracellular FKBP/FRB) by RAD001, NFAT luciferase; type: cell-based; conditions: RCAR half switches with CD27, CD28, ICOS, OX40 or 41BB costimulatory domain; RAD001 50 nM
# Procedure: Jurkat cells with NFAT-LUC reporter (JNL) were grown to the density of 0.5×10^6/ml in Jurkat cell growth media with puromycin at 0.5 μg/ml. For each transfection 2.5×10^6 cells were spin down at 100 g for 10 minutes. Two μg of DNA per construct were used per transfection. Amaxa Nucleofector solution V and supplement I was mixed and 100 μl was added into the tube with DNA construct. The mixture was then added to the cells and transferred to the electroporation cuvette. Electroporation was done under setting X-001 using Amaxa Nucleofector II Device. 0.5 ml of growth media was added immediately after electroporation and the mixture were transferred into 2 ml growth media in one well of the 6-well plate.
# After one hour, RAD001 compound was delivered at 50 nM when testing RCARs with different costimulatory signaling domains (FIGS. 44A and 44B), or various concentrations: 0 nM, 0.01 nM, 0.03 nM, 0.1 nM, 0.3 nM, 1 nM, 3 nM, and 10 nM (FIGS. 45A and 45B). Tissue culture plate was coated with 5 μg/ml of anti anti-CD19 antibody or isotype control for 2 hrs, blocked with the blocking buffer (DPBS with 5% serum) for 1 hour. The transfected cells with or without RAD001 were resuspended and added to the target plate with 100 μl per well and incubated for 18 hrs. […] The samples were incubated for 5 min at 37° C. and then luminescence is measured using Envision plate reader.
# [5] = system: H1N1 A/California/07/2009; assay: Clinical trial: hemagglutination inhibition titers and seroconversion, vaccine strain A/H1N1; type: in vivo, human
# Procedure: as §1, §2, §3
# [6] = system: A/H1N1/California/07/2009; assay: Clinical trial: serum IgG and IgM specific for A/H1N1/California/07/2009; type: in vivo, human; conditions: RAD001 versus placebo treated cohorts
# Procedure: Levels of IgG and IgM specific for the A/H1N1/California/07/2009 were measured in serum samples taken before and 4 weeks after influenza vaccination as described previously (Spensieri, F. et al. (2013) Proc. Natl. Acad. Sci. USA 110:14330-14335). Results were expressed as fluorescence intensity.
# [7] = system: PD-1 positive CD4 and CD8 T cells; assay: Clinical trial: immunophenotyping of PBMC by flow cytometry; type: in vivo, human
# [8] = Baseline (2 weeks prior to influenza vaccination), RAD001 0.5 mg daily, N = 50
# [9] = Baseline (2 weeks prior to influenza vaccination), RAD001 5 mg weekly, N = 49
# [10] = Baseline (2 weeks prior to influenza vaccination), RAD001 20 mg weekly, N = 49
# [11] = Intention to Treat Population, 0.5 mg, N = 48
# [12] = Intention to Treat Population, 5 mg, N = 49
# [13] = Intention to Treat Population, 20 mg, N = 48
# [14] = Subjects with Baseline Titers <=40, 0.5 mg
# [15] = Subjects with Baseline Titers <=40, 5 mg
# [16] = Subjects with Baseline Titers <=40, 20 mg
# [17] = Week 4 after influenza vaccination, RAD001 0.5 mg daily, N = 50
# [18] = Week 4 after influenza vaccination, RAD001 5 mg weekly, N = 49
# [19] = Week 4 after influenza vaccination, RAD001 20 mg weekly, N = 49
smiles,measurement,setting,value
"CO[C@H]1C[C@@H]2CC[C@@H](C)[C@@](O)(O2)C(=O)C(=O)N2CCCC[C@H]2C(=O)O[C@H]([C@H](C)C[C@@H]2CC[C@@H](OCCO)[C@H](OC)C2)CC(=O)[C@H](C)/C=C(\C)[C@@H](O)[C@@H](OC)C(=O)[C@H](C)C[C@H](C)/C=C/C=C/C=C/1C [RAD001, (1R,9S,12S,15R,16E,18R,19R,21R,23S,24E,26E,28E,30S,32S,35R)-1,18-dihydroxy-12-{(1R)-2-[(1S,3R,4R)-4-(2-hydroxyethoxy)-3-methoxycyclohexyl]-1-methylethyl}-19,30-dimethoxy-15,17,21,23,29,35-hexamethyl-11,36-dioxa-4-aza-tricyclo[30.3.1.04,9]hexatriaconta-16,24,26,28-tetraene-2,3,10,14,20-pentaone]","HI GMT, A/H3N2",H3N2 A/Victoria/210/2009; [8],106.8
same,"HI GMT, A/H3N2",H3N2 A/Victoria/210/2009; [9],126.04
same,"HI GMT, A/H3N2",H3N2 A/Victoria/210/2009; [10],137.1
same,"Percent of subjects with seroconversion to influenza 4 weeks after vaccination, H3N2",H3N2 A/Victoria/210/2009; [11],27%
same,"Percent of subjects with seroconversion to influenza 4 weeks after vaccination, H3N2",H3N2 A/Victoria/210/2009; [12],24%
same,"Percent of subjects with seroconversion to influenza 4 weeks after vaccination, H3N2",H3N2 A/Victoria/210/2009; [13],25%
same,"GMT ratio (week 4 post vaccination/baseline), A/H3N2","H3N2 A/Victoria/210/2009; RAD001 0.5 mg daily, N = 50",2.1
same,"GMT ratio (week 4 post vaccination/baseline), A/H3N2","H3N2 A/Victoria/210/2009; RAD001 5 mg weekly, N = 49",2.0
same,"GMT ratio (week 4 post vaccination/baseline), A/H3N2","H3N2 A/Victoria/210/2009; RAD001 20 mg weekly, N = 49",2.1
same,"Percent of subjects with seroconversion to influenza 4 weeks after vaccination, H3N2",H3N2 A/Victoria/210/2009; [14],64%
same,"Percent of subjects with seroconversion to influenza 4 weeks after vaccination, H3N2",H3N2 A/Victoria/210/2009; [15],53%
same,"Percent of subjects with seroconversion to influenza 4 weeks after vaccination, H3N2",H3N2 A/Victoria/210/2009; [16],71%
same,"HI GMT, A/H3N2",H3N2 A/Victoria/210/2009; [17],194.4
same,"HI GMT, A/H3N2",H3N2 A/Victoria/210/2009; [18],223.0
same,"HI GMT, A/H3N2",H3N2 A/Victoria/210/2009; [19],223.0
same,self-reported energy and exercise ability compared to placebo,[1],increased energy and exercise ability
same,"Percentage of subjects who seroconvert to heterologous strain 4 weeks after seasonal influenza vaccination, A/H1N1 strain: A/New Jersey/8/76",[2]; RAD001 5 mg weekly,16%
same,"Percentage of subjects who seroconvert to heterologous strain 4 weeks after seasonal influenza vaccination, A/H1N1 strain: A/New Jersey/8/76",[2]; RAD001 20 mg weekly,8%
same,increase in the HI GMT ratios for the heterologous strain,[2]; RAD001 as compared to placebo cohorts,higher
same,primary endpoint of the study (HI GMT ratio versus placebo),[3]; RAD001 0.5 mg daily or 5 mg weekly,met the GMT primary endpoint
same,primary endpoint of the study (HI GMT ratio versus placebo),[3]; RAD001 20 mg weekly,but not higher dose (20 mg weekly) cohort met the primary endpoint
same,increase in influenza titers in subgroup,"[3]; human, in vivo",greater RAD001-associated increase in titers than did the ITT population
same,target-dependent NFAT activity,[4],all able to activate the target-dependent NFAT activity
same,"HI GMT, A/H1N1",[5]; [8],102.8
same,"HI GMT, A/H1N1",[5]; [9],84.2
same,"HI GMT, A/H1N1",[5]; [10],90.1
same,"Percent of subjects with seroconversion to influenza 4 weeks after vaccination, H1N1",[5]; [11],27%
same,"Percent of subjects with seroconversion to influenza 4 weeks after vaccination, H1N1",[5]; [12],27%
same,"Percent of subjects with seroconversion to influenza 4 weeks after vaccination, H1N1",[5]; [13],17%
same,"GMT ratio (week 4 post vaccination/baseline), A/H1N1","[5]; RAD001 0.5 mg daily, N = 50",2.6
same,"GMT ratio (week 4 post vaccination/baseline), A/H1N1","[5]; RAD001 5 mg weekly, N = 49",2.5
same,"GMT ratio (week 4 post vaccination/baseline), A/H1N1","[5]; RAD001 20 mg weekly, N = 49",1.8
same,"Percent of subjects with seroconversion to influenza 4 weeks after vaccination, H1N1",[5]; [14],42%
same,"Percent of subjects with seroconversion to influenza 4 weeks after vaccination, H1N1",[5]; [15],45%
same,"Percent of subjects with seroconversion to influenza 4 weeks after vaccination, H1N1",[5]; [16],36%
same,"HI GMT, A/H1N1",[5]; [17],190.2
same,"HI GMT, A/H1N1",[5]; [18],198.73
same,"HI GMT, A/H1N1",[5]; [19],129.7
same,post-vaccination anti-influenza IgM and IgG levels,[6],did not differ
same,percentage of PD-1 negative CD4 T cells,[7]; RAD001 cohorts as compared to the placebo cohorts,increased
same,percentage of CD4 PD-1 positive T cells,"[7]; week 6 and 12, all RAD001 cohorts",decreased from baseline
same,percentage of CD8 PD-1 positive cells,"[7]; week 6 and 12, the two lower dose RAD001 cohorts",decreased from baseline
